Assay results reported in patent US8383641B2, “Aryloxyethylamine compounds suitable for treating disorders that respond to modulation of the dopamine D3 receptor” (Abbott GmbH & Co. KG, priority 2006, dated 2013).
pKi: −log10 of the molar value. Counter-ions that a name gives are not always drawn.

Columns and labels:
[1] = target: T1, human dopamine D2L receptors (long isoform) (Homo sapiens, UniProt P14416); assay: Dopamine D2L receptor binding, [125I] iodospiperone displacement; conditions: selectivity ratio of receptor binding constants, D2L versus D3
T1 construct: expressed in transfected cells; host or cells: HEK-293
T1 sequence (P14416 whole entry, canonical isoform): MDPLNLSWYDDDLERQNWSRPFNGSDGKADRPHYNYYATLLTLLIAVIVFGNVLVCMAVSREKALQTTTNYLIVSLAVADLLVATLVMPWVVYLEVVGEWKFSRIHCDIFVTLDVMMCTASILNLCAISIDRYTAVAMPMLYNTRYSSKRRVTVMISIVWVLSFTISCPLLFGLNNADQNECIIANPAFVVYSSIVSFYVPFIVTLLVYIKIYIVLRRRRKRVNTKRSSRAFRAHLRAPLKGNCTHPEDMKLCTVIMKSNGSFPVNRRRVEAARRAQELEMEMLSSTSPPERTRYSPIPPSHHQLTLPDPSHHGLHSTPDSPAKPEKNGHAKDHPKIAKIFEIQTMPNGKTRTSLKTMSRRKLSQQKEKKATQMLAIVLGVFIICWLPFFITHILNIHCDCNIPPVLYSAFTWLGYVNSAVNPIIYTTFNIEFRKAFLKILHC
Method: (§1) The substance to be tested was either dissolved in methanol/Chremophor® (BASF-AG) or in dimethyl sulfoxide and then diluted with water to the desired concentration.
(§2) Each assay mixture was run in triplicate.
The incubation buffer contained 50 mM tris, 120 mM NaCl, 5 mM KCl, 2 mM CaCl2, 2 mM MgCl2 and 0.1% bovine serum albumin. The buffer was adjusted to pH 7.4 with HCl.
(§3) After having been incubated at 25° C. for 60 minutes, the assay mixtures were filtered through a Whatman GF/B glass fiber filter under vacuum using a cell collecting device. The filters were transferred to scintillation viols using a filter transfer system. After 4 ml of Ultima Gold® (Packard) have been added, the samples were shaken for one hour and the radioactivity was then counted in a Beta-Counter (Packard, Tricarb 2000 or 2200CA). The cpm values were converted into dpm using a standard quench series and the program belonging to the instrument.
(§4) The inhibition curves were analyzed by means of iterative nonlinear regression analysis using the Statistical Analysis System (SAS) which is similar to the “LIGAND” program described by Munson and Rodbard.

[2] = target: T2, human dopamine D3 receptors (Homo sapiens, UniProt P35462); assay: Dopamine D3 receptor binding, [125I]-iodosulpride displacement; conditions: membranes of HEK-293 cells expressing human D3 receptor; 0.1 nM [125I]-iodosulpride
T2 construct: expressed in transfected cells; host or cells: HEK-293
T2 sequence (P35462 whole entry): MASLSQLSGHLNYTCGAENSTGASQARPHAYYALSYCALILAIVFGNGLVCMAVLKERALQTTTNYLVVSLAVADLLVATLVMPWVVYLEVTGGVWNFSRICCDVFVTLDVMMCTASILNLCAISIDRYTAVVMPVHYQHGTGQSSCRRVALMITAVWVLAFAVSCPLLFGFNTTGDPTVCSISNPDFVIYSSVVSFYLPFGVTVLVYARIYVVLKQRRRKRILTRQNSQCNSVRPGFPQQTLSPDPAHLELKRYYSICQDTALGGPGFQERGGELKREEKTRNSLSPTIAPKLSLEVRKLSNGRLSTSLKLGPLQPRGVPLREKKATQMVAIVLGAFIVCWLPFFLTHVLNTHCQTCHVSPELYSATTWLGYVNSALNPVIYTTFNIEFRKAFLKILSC
Method: as §1, §2
The incubation buffer contained 50 mM tris, 120 mM NaCl, 5 mM KCl, 2 mM CaCl2, 2 mM MgCl2 and 0.1% bovine serum albumin, 10 μM quinolone and 0.1% ascorbic acid (prepared fresh daily). The buffer was adjusted to pH 7.4 with HCl.
as §3, §4

Structure (SMILES) | Ki(D2)*/Ki(D3)* [1] | pKi [2]
CCCNCCOc1ccc(NS(=O)(=O)c2ccc(C(C)C)cc2)c(OC)n1 [Example 4, 4-Isopropyl-N-[2-methoxy-6-(2-propylamino-ethoxy)-pyridin-3-yl]-benzenesulfonamide×HCl] | ++ (between 50 and 100) | > 9.00
Cc1nc(OC[C@@H]2CCCN2)ccc1NS(=O)(=O)c1ccc(C(C)C)cc1 [Example 43, 4-Isopropyl-N-[2-methyl-6-((S)-1-pyrrolidin-2-ylmethoxy)-pyridin-3-yl]-benzenesulfonamide×HCl] | +++ (between 100 and 150) | 8.00 to 9.00
COc1nc(OCCN2CCCC2)ccc1NS(=O)(=O)c1ccc(C(C)C)cc1 [Example 16, 4-Isopropyl-N-[2-methoxy-6-(2-pyrrolidin-1-yl-ethoxy)-pyridin-3-yl]-benzenesulfonamide×HCl] | + (between 10 and 50) | 8.00 to 9.00
CCCNCCOc1ccc(NS(=O)(=O)c2ccc(CCCF)cc2)c(OC)n1 [Example 1, 4-(3-Fluoro-propyl)-N-[2-methoxy-6-(2-propylamino-ethoxy)-pyridin-3-yl]-benzenesulfonamide×HCl] | ++ (between 50 and 100) | > 9.00
CCCNCCOc1ccc(NS(=O)(=O)c2ccc(-c3cnco3)cc2)c(C)n1 [Example 36, N-[2-Methyl-6-(2-propylamino-ethoxy)-pyridin-3-yl]-4-oxazol-5-yl-benzenesulfonamide×HCl] | ++++ (>150) | 7.30 to 8.00
CCCNCCOc1ccc(NS(=O)(=O)c2ccc(OCC(F)F)cc2)c(OC)n1 [Example 9, 4-(2,2-Difluoro-ethoxy)-N-[2-methoxy-6-(2-propylamino-ethoxy)-pyridin-3-yl]-benzenesulfonamid×HCl] | ++++ (>150) | 8.00 to 9.00
CCCNCCOc1ccc(NS(=O)(=O)c2ccc(CCF)cc2)c(OC)n1 [Example 6, 4-(2-Fluoro-ethyl)-N-[2-methoxy-6-(2-propylamino-ethoxy)-pyridin-3-yl]-benzenesulfonamide×HCl] | ++ (between 50 and 100) | 8.00 to 9.00
COc1nc(OC[C@H]2CCCN2)ccc1NS(=O)(=O)c1ccc(-c2cnco2)cc1 [Example 27, N-[2-Methoxy-6-((R)-1-pyrrolidin-2-ylmethoxy)-pyridin-3-yl]-4-oxazol-5-yl-benzenesulfonamide×HCl] | +++ (between 100 and 150) | 8.00 to 9.00
CCCN1CCC(Oc2ccc(NS(=O)(=O)c3ccc(C(C)C)cc3)c(C)n2)C1.O=C(O)/C=C/C(=O)O (stereo not drawn) [Example 61, 4-Isopropyl-N-{2-methyl-6-[(1-propylpyrrolidin-3-yl)oxy]pyridin-3-yl}benzenesulfonamide (2E)-but-2-enedioate] | + (between 10 and 50) | 8.00 to 9.00
CCCNCCOc1ccc(NS(=O)(=O)c2ccc(OC(F)(F)F)cc2)c(OC)n1.Cl [Example 2, N-[2-Methoxy-6-(2-propylamino-ethoxy)-pyridin-3-yl]-4-trifluoromethoxy-benzenesulfonamide×HCl] | + (between 10 and 50) | 8.00 to 9.00
CCCNCCOc1ccc(NS(=O)(=O)c2ccc(C(C)C)cc2)c(C)n1 [Example 29, 4-Isopropyl-N-[2-methyl-6-(2-propylamino-ethoxy)-pyridin-3-yl]-benzenesulfonamide×HCl] | ++++ (>150) | > 9.00
CCCNCCOc1ncc(NS(=O)(=O)c2ccc(C(C)C)cc2)c(OC)n1 [Example 20, 4-isopropyl-N-[4-methoxy-2-(2-propylamino-ethoxy)-pyrimidin-5-yl]-benzenesulfonamide] | + (between 10 and 50) | 8.00 to 9.00
COc1nc(OC2CCNC2)ccc1NS(=O)(=O)c1ccc(C(C)C)cc1 (stereo not drawn) [Example 13, 4-Isopropyl-N-[2-methoxy-6-(pyrrolidin-3-yloxy)-pyridin-3-yl]-benzenesulfonamide×HCl] | + (between 10 and 50) | 6.82 to 7.30
CCCNCCOc1ccc(NS(=O)(=O)c2ccc(-c3cnco3)cc2)c(OC)n1 [Example 7, N-[2-Methoxy-6-(2-propylamino-ethoxy)-pyridin-3-yl]-4-oxazol-5-yl-benzenesulfonamide×HCl] | ++++ (>150) | > 9.00
COc1nc(OCCN2CCCC2)ccc1NS(=O)(=O)c1ccc(-c2cnco2)cc1 [Example 19, N-[2-Methoxy-6-(2-pyrrolidin-1-yl-ethoxy)-pyridin-3-yl]-4-oxazol-5-yl-benzenesulfonamide] | + (between 10 and 50) | 7.30 to 8.00
CCCNCCOc1ccc(NS(=O)(=O)c2ccc(OCC(F)(F)F)cc2)c(OC)n1 [Example 10, N-[2-Methoxy-6-(2-propylamino-ethoxy)-pyridin-3-yl]-4-(2,2,2-trifluoro-ethoxy)-benzenesulfonamide×HCl] | ++++ (>150) | 8.00 to 9.00
CCCNCCOc1ncc(NS(=O)(=O)c2ccc(OC(F)(F)F)cc2)c(OC)n1 [Example 21, N-[4-Methoxy-2-(2-propylamino-ethoxy)-pyrimidin-5-yl]-4-trifluoromethoxy-benzenesulfonamide] | ++ (between 50 and 100) | 6.82 to 7.30
CCCNCCOc1ccc(NS(=O)(=O)c2ccc([C@@H](C)CF)cc2)c(C)n1 [Example 34, 4-((R)-2-Fluoro-1-methyl-ethyl)-N-[2-methyl-6-(2-propylamino-ethoxy)-pyridin-3-yl]-benzenesulfonamide×HCl] | ++++ (>150) | 8.00 to 9.00
COc1nc(OCCN2CCCC2)ccc1NS(=O)(=O)c1ccc(C(C)C(F)(F)F)cc1 (stereo not drawn) [Example 18, N-[2-Methoxy-6-(2-pyrrolidin-1-yl-ethoxy)-pyridin-3-yl]-4-(2,2,2-trifluoro-1-methyl-ethyl)-benzenesulfonamide] | + (between 10 and 50) | 8.00 to 9.00
CCCN(CCC)CCOc1ccc(NS(=O)(=O)c2ccc(C(C)C)cc2)cn1 [Example 24, N-[6-(2-Dipropylamino-ethoxy)-pyridin-3-yl]-4-isopropyl-benzenesulfonamide×HCl] | ++ (between 50 and 100) | 7.30 to 8.00
CCCNCCOc1cc(C)c(NS(=O)(=O)c2ccc([C@@H](C)CF)cc2)cn1 [Example 57, 4-((R)-2-Fluoro-1-methyl-ethyl)-N-[4-methyl-6-(2-propylamino-ethoxy)-pyridin-3-yl]-benzenesulfonamide×HCl] | ++ (between 50 and 100) | 7.30 to 8.00
CC(C)c1ccc(S(=O)(=O)Nc2ccc(OCCN(C)C)nc2)cc1 [Example 22, N-[6-(2-Dimethylamino-ethoxy)-pyridin-3-yl]-4-isopropyl-benzenesulfonamide×HCl] |  | 6.82 to 7.30
COc1nc(OCCN2CCCC2)ccc1NS(=O)(=O)c1ccc([C@@H](C)CF)cc1 [Example 17, 4-((R)-2-Fluoro-1-methyl-ethyl)-N-[2-methoxy-6-(2-pyrrolidin-1-yl-ethoxy)-pyridin-3-yl]-benzenesulfonamide] | ++ (between 50 and 100) | 8.00 to 9.00
CCCNCCOc1ccc(NS(=O)(=O)c2ccc([C@@H](C)CF)cc2)c(OC)n1 [Example 11, 4-((R)-2-Fluoro-1-methyl-ethyl)-N-[2-methoxy-6-(2-propylamino-ethoxy)-pyridin-3-yl]-benzenesulfonamide×HCl] | ++++ (>150) | > 9.00
CCCNCCOc1ccc(NS(=O)(=O)c2ccc(OCCF)cc2)c(OC)n1 [Example 8, 4-(2-Fluoro-ethoxy)-N-[2-methoxy-6-(2-propylamino-ethoxy)-pyridin-3-yl]-benzenesulfonamide×HCl] | ++++ (>150) | 8.00 to 9.00
CCCNCCOc1ccc(NS(=O)(=O)c2ccc(OC(F)F)cc2)c(OC)n1 [Example 5, 4-Difluoromethoxy-N-[2-methoxy-6-(2-propylamino-ethoxy)-pyridin-3-yl]-benzenesulfonamide×HCl] | ++ (between 50 and 100) | 8.00 to 9.00
COc1nc(OCCN2CCCC2)ccc1NS(=O)(=O)c1ccc(CCCF)cc1 [Example 15, 4-(3-Fluoro-propyl)-N-[2-methoxy-6-(2-pyrrolidin-1-yl-ethoxy)-pyridin-3-yl]-benzenesulfonamide] | + (between 10 and 50) | 7.30 to 8.00
CCCNCCOc1ccc(NS(=O)(=O)c2ccc(C(C)C(F)(F)F)cc2)c(OC)n1 (stereo not drawn) [Example 3, N-[2-Methoxy-6-(2-propylamino-ethoxy)-pyridin-3-yl]-4-(2,2,2-trifluoro-1-methylethyl)-benzenesulfonamide×HCl] | ++ (between 50 and 100) | 8.00 to 9.00
CCCNCCOc1ccc(NS(=O)(=O)c2ccc(C(C)C)cc2)cn1 [Example 23, 4-Isopropyl-N-[6-(2-propylamino-ethoxy)-pyridin-3-yl]-benzenesulfonamide×HCl] | + (between 10 and 50) | 7.30 to 8.00
